In ChEMBL document CHEMBL4177534, “Discovery and evaluation of 1H-pyrrolo[2,3-b]pyridine based selective and reversible small molecule BTK inhibitors for the treatment of rheumatoid arthritis” (Bioorg Med Chem Lett, 2017):

Legend:
[1] = target: T1, Tyrosine-protein kinase BTK (Mus musculus, UniProt P35991); test: Inhibition of C57BL/6J mouse BTK assessed as decrease in anti-mouse IgM antibody stimulated BCR mediated CD69 upregulation preincubated for 30 mins followed by antibody challenge after 18 to 24 hrs by flow cytometry
[2] = Metabolic stability in rat liver microsomes assessed as metabolism rate; format: ADME, microsome
[3] = Equilibrium aqueous solubility of the compound at pH 4; format: physicochemical
[4] = target: Tyrosine-protein kinase TXK (Homo sapiens, UniProt P42681); test: Inhibition of TXK (unknown origin)
[5] = target: Tyrosine-protein kinase JAK1 (Homo sapiens, UniProt P23458); test: Inhibition of JAK1 (unknown origin)
[6] = target: Tyrosine-protein kinase JAK2 (Homo sapiens, UniProt O60674); test: Inhibition of JAK2 (unknown origin)
[7] = target: Tyrosine-protein kinase BTK (Homo sapiens, UniProt Q06187); test: Inhibition of human BTK assessed as decrease in […] antibody stimulated BCR mediated CD69 upregulation in whole blood preincubated for 1 hr followed by antibody challenge after 4 hrs by flow cytometry
[8] = target: T1, Tyrosine-protein kinase BTK; test: Inhibition of mouse BTK assessed as decrease in anti-mouse IgD antibody stimulated BCR mediated CD69 upregulation in whole blood preincubated for 1 hr followed by antibody challenge after 4 hrs by flow cytometry
[9] = Equilibrium aqueous solubility of the compound at pH 2.1; format: physicochemical
[10] = Volume of distribution at steady state in mouse at 3 mg/kg, iv; format: ADME, organism-based; conditions: in vivo, read-out: Vdss
[11] = Cmax in mouse at 10 mg/kg, po; format: ADME, organism-based; set-up: dose 10 mg/kg, route oral; conditions: in vivo
Mus musculus [12] = test: Dose normalized AUC (0 to 24 hrs) in mouse at 10 mg/kg, po; format: ADME, organism-based; conditions: in vivo
Mus musculus [13] = test: Ex-vivo inhibition of BTK in C57BL/6J mouse assessed as anti-mouse IgD antibody stimulated BCR mediated CD69 level in whole blood isolated from 10 to 100 mg/kg, po bid treated mouse measured after 2 hrs post first dose by flow cytometry relative to control; format: functional; set-up: scale not given: the % may be the effect or the level left
Mus musculus [14] = test: Antiarthritic activity in DBA/1J mouse type-2 collagen-induced arthritis model assessed as reduction in clinical score immunized with type-2 collagen on day 1 and day 21 followed by LPS challenge on day 28 subsequent compound administration po bid by hematoxylin and eosin staining based assay; format: functional, organism-based
[15] = target: TGF-beta receptor type-2 (Homo sapiens) (UniProt P37173); test: Inhibition of recombinant N-terminal GST-tagged TGFBR2 (unknown origin) expressed in baculovirus infected Sf9 cells assessed as change in enzyme activity at 1 uM in presence of 1 uM ATP relative to control; set-up: scale not given: the % may be the effect or the level left
[16] = target: Mitogen-activated protein kinase 8 (Mus musculus) (UniProt Q91Y86); test: Inhibition of recombinant mouse N-terminal GST-tagged JNK1 expressed in baculovirus infected Sf9 cells assessed as change in enzyme activity at 1 uM in presence of 1 uM ATP relative to control; set-up: scale not given: the % may be the effect or the level left
[17] = target: Serine/threonine-protein kinase 4 (Homo sapiens) (UniProt Q13043); test: Inhibition of recombinant human full length N-terminal GST-tagged MST1 expressed in baculovirus infected Sf9 cells assessed as change in enzyme activity at 1 uM in presence of 1 uM ATP relative to control; set-up: scale not given: the % may be the effect or the level left
[18] = target: Death-associated protein kinase 1 (Homo sapiens) (UniProt P53355); test: Inhibition of recombinant human N-terminal GST-tagged DAPK1 (1 to363 residues) expressed in baculovirus infected Sf9 cells assessed as change in enzyme activity at 1 uM in presence of 1 uM ATP relative to control; set-up: scale not given: the % may be the effect or the level left
[19] = target: Proto-oncogene tyrosine-protein kinase Src (Homo sapiens) (UniProt P12931); test: Inhibition of SRC (unknown origin) assessed as change in enzyme activity in presence of 1 uM ATP relative to control; set-up: scale not given: the % may be the effect or the level left
[20] = target: Tyrosine-protein kinase Lck (Homo sapiens) (UniProt P06239); test: Inhibition of recombinant human full length N-terminal GST-tagged LCK expressed in baculovirus infected Sf9 cells assessed as change in enzyme activity at 1 uM in presence of 1 uM ATP relative to control; set-up: scale not given: the % may be the effect or the level left
[21] = target: Epidermal growth factor receptor (Homo sapiens) (UniProt P00533); test: Inhibition of recombinant human N-terminal GST-tagged EGFR expressed in baculovirus infected Sf9 cells assessed as change in enzyme activity at 1 uM in presence of 1 uM ATP relative to control; set-up: scale not given: the % may be the effect or the level left
[22] = target: Fibroblast growth factor receptor 4 (Homo sapiens) (UniProt P22455); test: Inhibition of recombinant human N-terminal GST-tagged FGFR4 (460 to end) residues expressed in baculovirus infected Sf9 cells assessed as change in enzyme activity at 1 uM in presence of 1 uM ATP relative to control; set-up: scale not given: the % may be the effect or the level left
[23] = target: Tyrosine-protein kinase Lyn (Homo sapiens) (UniProt P07948); test: Inhibition of recombinant human full length N-terminal GST-tagged LYN A expressed in baculovirus infected Sf9 cells assessed as change in enzyme activity at 1 uM in presence of 1 uM ATP relative to control; set-up: scale not given: the % may be the effect or the level left
[24] = target: Rho-associated protein kinase 1 (Homo sapiens) (UniProt Q13464); test: Inhibition of recombinant human N-terminal GST-tagged ROCK1 (17 to 535 residues) expressed in baculovirus infected Sf9 cells assessed as change in enzyme activity at 1 uM in presence of 1 uM ATP relative to control; set-up: scale not given: the % may be the effect or the level left
[25] = target: Mast/stem cell growth factor receptor Kit (Homo sapiens) (UniProt P10721); test: Inhibition of recombinant human N-terminal GST-tagged c-KIT (544 to end residues) expressed in baculovirus infected Sf9 cells assessed as change in enzyme activity at 1 uM in presence of 2 uM ATP relative to control; set-up: scale not given: the % may be the effect or the level left
[26] = target: Aurora kinase A (Homo sapiens) (UniProt O14965); test: Inhibition of recombinant full length N-terminal GST-tagged AURORA A (unknown origin) expressed in baculovirus infected Sf9 cells assessed as change in enzyme activity at 1 uM in presence of 2 uM ATP relative to control; set-up: scale not given: the % may be the effect or the level left
[27] = target: Tyrosine-protein kinase TXK (Homo sapiens) (UniProt P42681); test: Inhibition of recombinant N-terminal GST-tagged TXK (unknown origin) expressed in baculovirus infected Sf9 cells assessed as change in enzyme activity at 1 uM in presence of 2 uM ATP relative to control; set-up: scale not given: the % may be the effect or the level left
[28] = target: PAK 1/CDC42 (Homo sapiens) (UniProt Q13153+P60953); test: Inhibition of recombinant human full length N-terminal GST-tagged PAK1/CDC42 expressed in baculovirus infected Sf9 cells assessed as change in enzyme activity at 1 uM in presence of 2 uM ATP relative to control; set-up: scale not given: the % may be the effect or the level left
Mus musculus [29] = test: Ex-vivo inhibition of BTK in C57BL/6J mouse assessed as anti-mouse IgD antibody stimulated BCR mediated CD69 level in whole blood isolated from 100 mg/kg, po bid treated mouse measured after 2 hrs post first dose by flow cytometry relative to control; format: functional; set-up: scale not given: the % may be the effect or the level left
Mus musculus [30] = test: Ex-vivo inhibition of BTK in C57BL/6J mouse assessed as anti-mouse IgD antibody stimulated BCR mediated CD69 level in whole blood isolated from 10 mg/kg, po bid treated mouse measured after 24 hrs post first dose by flow cytometry relative to control; format: functional; set-up: scale not given: the % may be the effect or the level left

T1 sequence (P35991 whole entry): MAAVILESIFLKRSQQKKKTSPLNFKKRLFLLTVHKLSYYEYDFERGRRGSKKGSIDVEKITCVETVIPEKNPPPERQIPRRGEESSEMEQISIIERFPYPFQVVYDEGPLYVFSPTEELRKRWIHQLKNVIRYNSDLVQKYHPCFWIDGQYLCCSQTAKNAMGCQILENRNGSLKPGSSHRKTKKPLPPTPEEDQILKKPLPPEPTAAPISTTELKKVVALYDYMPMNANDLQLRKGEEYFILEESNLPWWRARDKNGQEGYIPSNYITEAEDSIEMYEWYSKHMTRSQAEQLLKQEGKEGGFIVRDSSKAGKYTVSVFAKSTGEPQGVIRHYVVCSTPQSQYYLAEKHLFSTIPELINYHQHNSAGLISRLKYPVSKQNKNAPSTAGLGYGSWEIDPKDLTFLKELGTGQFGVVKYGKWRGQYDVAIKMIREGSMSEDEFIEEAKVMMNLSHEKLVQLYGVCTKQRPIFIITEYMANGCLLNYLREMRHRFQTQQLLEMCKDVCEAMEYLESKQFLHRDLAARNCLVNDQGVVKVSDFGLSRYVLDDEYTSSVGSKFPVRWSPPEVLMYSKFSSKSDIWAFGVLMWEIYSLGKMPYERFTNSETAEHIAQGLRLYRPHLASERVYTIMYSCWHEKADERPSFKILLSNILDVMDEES
Sequence of Fibroblast growth factor receptor 4 (Homo sapiens) (P22455 22-802 limits assumed): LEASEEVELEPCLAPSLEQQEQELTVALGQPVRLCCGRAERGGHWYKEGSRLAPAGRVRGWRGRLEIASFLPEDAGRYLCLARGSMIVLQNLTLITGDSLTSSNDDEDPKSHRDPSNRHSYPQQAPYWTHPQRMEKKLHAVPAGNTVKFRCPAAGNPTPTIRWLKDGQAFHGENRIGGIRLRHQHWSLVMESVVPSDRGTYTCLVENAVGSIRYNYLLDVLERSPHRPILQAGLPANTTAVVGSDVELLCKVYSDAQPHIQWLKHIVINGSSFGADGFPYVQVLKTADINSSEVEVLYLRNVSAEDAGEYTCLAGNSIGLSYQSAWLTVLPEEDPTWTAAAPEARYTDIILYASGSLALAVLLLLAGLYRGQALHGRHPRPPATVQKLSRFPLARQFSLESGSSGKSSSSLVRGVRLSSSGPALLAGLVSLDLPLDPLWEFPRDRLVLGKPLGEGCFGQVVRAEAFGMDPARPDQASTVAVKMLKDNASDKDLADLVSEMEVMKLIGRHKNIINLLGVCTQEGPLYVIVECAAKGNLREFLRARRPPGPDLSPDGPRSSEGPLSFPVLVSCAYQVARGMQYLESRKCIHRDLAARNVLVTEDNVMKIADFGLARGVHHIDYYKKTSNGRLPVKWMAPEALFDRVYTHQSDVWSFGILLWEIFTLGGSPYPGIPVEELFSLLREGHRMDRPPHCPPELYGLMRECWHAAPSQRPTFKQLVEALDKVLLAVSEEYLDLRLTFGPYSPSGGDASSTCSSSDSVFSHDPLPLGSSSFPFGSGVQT
Sequence of Tyrosine-protein kinase BTK (Homo sapiens, UniProt Q06187) (Q06187 whole entry): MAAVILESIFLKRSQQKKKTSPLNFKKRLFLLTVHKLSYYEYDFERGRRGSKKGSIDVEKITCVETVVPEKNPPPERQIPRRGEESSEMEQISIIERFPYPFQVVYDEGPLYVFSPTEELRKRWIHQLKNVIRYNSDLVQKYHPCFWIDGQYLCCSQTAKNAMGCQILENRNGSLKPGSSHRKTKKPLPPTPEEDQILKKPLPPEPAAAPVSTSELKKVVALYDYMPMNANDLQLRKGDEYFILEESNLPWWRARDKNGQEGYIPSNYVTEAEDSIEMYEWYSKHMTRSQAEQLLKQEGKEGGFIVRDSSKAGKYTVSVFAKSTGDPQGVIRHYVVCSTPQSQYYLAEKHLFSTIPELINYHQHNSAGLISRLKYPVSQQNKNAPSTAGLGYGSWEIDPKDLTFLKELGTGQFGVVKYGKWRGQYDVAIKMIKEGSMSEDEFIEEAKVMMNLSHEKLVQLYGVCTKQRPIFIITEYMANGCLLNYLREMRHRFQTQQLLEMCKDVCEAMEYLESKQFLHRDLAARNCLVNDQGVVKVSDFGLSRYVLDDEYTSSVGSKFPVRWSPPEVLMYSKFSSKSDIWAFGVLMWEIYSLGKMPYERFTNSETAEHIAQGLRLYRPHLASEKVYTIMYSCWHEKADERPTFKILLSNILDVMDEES
Sequence of Rho-associated protein kinase 1 (Homo sapiens) (Q13464 2-1354 limits assumed): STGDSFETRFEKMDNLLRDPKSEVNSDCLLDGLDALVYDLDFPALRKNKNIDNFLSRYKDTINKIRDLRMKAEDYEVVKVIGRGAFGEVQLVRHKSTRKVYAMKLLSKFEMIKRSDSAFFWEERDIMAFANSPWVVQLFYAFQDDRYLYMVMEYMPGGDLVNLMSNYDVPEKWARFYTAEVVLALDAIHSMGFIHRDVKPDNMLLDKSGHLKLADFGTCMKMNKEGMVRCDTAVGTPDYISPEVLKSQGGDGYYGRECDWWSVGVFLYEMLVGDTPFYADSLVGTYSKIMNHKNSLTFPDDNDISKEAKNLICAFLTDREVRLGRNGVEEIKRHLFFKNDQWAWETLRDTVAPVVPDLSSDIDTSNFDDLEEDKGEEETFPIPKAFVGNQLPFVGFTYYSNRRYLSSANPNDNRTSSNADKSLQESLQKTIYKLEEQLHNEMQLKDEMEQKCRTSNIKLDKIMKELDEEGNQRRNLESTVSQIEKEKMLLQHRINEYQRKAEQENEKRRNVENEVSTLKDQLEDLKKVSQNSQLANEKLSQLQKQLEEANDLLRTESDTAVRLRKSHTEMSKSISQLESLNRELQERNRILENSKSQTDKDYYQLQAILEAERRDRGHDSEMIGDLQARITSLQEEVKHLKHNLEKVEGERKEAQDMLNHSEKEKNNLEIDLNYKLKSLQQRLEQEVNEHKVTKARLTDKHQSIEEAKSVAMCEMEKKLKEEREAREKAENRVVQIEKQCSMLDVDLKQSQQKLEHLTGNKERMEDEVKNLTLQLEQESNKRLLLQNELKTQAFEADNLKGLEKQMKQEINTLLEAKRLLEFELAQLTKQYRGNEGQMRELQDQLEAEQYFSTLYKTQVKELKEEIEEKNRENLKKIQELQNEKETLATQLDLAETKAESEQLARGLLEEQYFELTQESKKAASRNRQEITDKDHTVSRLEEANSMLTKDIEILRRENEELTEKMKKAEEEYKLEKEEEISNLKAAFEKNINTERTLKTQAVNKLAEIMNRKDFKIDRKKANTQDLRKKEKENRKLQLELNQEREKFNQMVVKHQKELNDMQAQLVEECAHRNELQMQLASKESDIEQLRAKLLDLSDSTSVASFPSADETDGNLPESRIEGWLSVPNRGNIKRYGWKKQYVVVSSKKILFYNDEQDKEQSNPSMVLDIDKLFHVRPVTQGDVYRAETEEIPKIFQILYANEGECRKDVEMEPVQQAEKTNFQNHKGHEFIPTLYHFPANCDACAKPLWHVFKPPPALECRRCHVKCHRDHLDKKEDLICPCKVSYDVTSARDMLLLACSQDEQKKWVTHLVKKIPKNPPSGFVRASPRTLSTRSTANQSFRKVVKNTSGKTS
Sequence of Epidermal growth factor receptor (Homo sapiens) (P00533 whole entry): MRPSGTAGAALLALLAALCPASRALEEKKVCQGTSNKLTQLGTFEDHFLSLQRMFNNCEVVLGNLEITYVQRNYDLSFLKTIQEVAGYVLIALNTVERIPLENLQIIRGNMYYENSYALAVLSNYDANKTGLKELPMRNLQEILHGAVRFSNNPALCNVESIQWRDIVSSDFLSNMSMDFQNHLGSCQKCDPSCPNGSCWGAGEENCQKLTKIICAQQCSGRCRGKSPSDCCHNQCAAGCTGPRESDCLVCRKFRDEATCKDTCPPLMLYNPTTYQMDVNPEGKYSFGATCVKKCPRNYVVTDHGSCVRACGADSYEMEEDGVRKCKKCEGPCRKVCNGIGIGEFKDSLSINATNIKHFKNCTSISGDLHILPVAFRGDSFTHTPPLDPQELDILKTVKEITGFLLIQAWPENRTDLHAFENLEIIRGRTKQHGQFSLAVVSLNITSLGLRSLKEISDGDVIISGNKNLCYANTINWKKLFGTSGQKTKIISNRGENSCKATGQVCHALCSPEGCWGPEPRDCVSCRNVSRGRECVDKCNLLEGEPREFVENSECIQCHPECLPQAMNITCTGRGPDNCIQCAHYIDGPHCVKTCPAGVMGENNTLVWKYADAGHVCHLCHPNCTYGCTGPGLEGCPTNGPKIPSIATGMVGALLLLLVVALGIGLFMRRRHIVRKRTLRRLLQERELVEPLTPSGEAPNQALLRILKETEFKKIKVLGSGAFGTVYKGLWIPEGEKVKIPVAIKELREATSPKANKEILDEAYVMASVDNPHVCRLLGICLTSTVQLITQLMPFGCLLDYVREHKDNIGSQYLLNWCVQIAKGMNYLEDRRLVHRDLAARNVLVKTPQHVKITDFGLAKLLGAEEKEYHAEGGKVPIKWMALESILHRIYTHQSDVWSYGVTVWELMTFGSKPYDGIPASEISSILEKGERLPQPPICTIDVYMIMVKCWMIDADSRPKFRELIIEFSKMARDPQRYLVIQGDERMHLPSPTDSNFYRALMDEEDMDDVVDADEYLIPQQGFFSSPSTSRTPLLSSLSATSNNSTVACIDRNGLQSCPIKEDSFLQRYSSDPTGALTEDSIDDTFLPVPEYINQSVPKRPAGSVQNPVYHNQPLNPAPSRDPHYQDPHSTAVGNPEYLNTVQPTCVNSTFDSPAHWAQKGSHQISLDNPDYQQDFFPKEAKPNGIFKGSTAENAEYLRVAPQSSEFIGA
Sequence of Aurora kinase A (Homo sapiens) (O14965 whole entry): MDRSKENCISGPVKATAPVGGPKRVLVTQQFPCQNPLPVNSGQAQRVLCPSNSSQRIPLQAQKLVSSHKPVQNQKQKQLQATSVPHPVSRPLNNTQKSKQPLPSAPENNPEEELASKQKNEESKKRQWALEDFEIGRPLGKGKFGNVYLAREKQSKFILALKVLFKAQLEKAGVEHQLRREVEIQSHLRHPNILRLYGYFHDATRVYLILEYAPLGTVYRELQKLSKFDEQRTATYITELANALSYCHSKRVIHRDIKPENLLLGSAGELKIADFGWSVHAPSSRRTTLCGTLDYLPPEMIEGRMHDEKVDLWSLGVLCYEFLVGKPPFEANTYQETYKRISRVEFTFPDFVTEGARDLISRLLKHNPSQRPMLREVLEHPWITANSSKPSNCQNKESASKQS

| Compound | IC50 [1] [nM] | Drug metabolism [2] | solubility thermodynamic [3] [µM] | IC50 [4] [nM] | IC50 [5] [nM] | IC50 [6] [nM] | IC50 [7] [nM] | IC50 [8] [nM] | solubility thermodynamic [9] [µM] | Vd [10] [L/kg] | Cmax [11] [µM] | AUC/dose (Mus musculus [12]) [µM·h] | Activity (Mus musculus [14]) | Activity [15] [%] | Activity [16] [%] | Activity [17] [%] | Activity [18] [%] | Activity [19] [%] | Activity [20] [%] | Activity [21] [%] | also measured |
| --- | --- | --- | --- | --- | --- | --- | --- | --- | --- | --- | --- | --- | --- | --- | --- | --- | --- | --- | --- | --- | --- |
| O=C1c2c(F)cc(C3CC3)cc2OCCN1c1cccc(-c2ccnc3[nH]c(C4=CCN(C5COC5)CC4)cc23)c1CO | 41.9 | < 0.04 nmol/min/mg | > 2000 | > 10000 | > 10000 | > 10000 | 261 | 364 | > 2000 | 0.6 | 7.6 | 25.8 | Dose-dependent effect | 3 | -4 | 5 | -1 | -26 | 1 | -1 | Activity (Mus musculus [13]): >90%; Activity [22]: 1%; Activity [23]: -2%; Activity [24]: 3%; Activity [25]: 0%; Activity [26]: -10%; Activity [27]: 1%; Activity [28]: 2% |
| CCN1CCN(Cc2ccc(-c3cc4c(-c5cccc(N6CCOc7cc(C8CC8)cc(F)c7C6=O)c5CO)ccnc4[nH]3)nc2)CC1 | 8.4 | <= 0.04 nmol/min/mg | > 2000 | > 10000 | > 10000 | > 10000 | 83.5 | 159 | > 2000 | 1.9 | 2.3 | 27 | Dose-dependent effect | 2 | 1 | -3 | 2 | -33 | -4 | 2 | Activity (Mus musculus [29]): 72%; Activity (Mus musculus [30]): 40%; Activity [22]: 0%; Activity [23]: -12%; Activity [24]: -4%; Activity [25]: -1%; Activity [26]: -2%; Activity [27]: -2%; Activity [28]: 0% |
